Literature values as cited in US8609693B2, “Methods of administration of thrombopoietin agonist compounds” (GlaxoSmithKline LLC, priority 2009, dated 2013).

System: platelet counts
Conditions: 50 mg, 75 mg and 100 mg dose; patients receiving carboplatin/paclitaxel

## CC1=NN(c2ccc(C)c(C)c2)C(=O)/C1=N\Nc1cccc(-c2cccc(C(=O)O)c2)c1O [Compound B, 3′-[(2Z)-[1-(3,4-dimethylphenyl)-1,5-dihydro-3-methyl-5-oxo-4H-pyrazol-4-ylidene]hydrazino]-2′-hydroxy-[1,1′-biphenyl]-3-carboxylic acid]
  target platelet improvement counts: not meet the target platelet improvement counts
